Assays:
[1] = molecular target: T1, hASIC1a (Homo sapiens, UniProt P78348); experiment: Calcium-imaging (FLIPR, Fluo-4) of acid (MES)-induced calcium response in ASIC1a expressing HEK293 cells; assay type: cell-based; set-up: expressed in transfected cells; host or cells: HEK293; settings: calcium mobilization assay, MES-induced calcium response, HEK293, n=3-7
T1 sequence (P78348 1-528): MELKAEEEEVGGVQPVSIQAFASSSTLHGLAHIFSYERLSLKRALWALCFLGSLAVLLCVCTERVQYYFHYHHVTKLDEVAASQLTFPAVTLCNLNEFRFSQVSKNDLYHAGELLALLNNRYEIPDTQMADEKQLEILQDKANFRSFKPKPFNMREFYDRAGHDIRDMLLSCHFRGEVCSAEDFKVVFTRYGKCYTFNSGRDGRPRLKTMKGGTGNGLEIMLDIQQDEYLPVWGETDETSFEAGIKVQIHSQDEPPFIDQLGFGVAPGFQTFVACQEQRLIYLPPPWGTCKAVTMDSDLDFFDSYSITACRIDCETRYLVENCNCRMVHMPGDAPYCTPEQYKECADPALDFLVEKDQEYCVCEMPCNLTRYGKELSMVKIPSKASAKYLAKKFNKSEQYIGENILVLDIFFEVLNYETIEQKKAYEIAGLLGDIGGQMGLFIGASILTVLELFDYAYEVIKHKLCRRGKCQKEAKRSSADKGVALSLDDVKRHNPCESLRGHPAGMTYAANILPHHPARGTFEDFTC
Description: ASIC1a expressing HEK293 cells are grown in culture medium (DMEM with 10% FBS), in polystyrene culture flasks ([…]) at 37° C. in a humidified atmosphere of 5% CO2. Confluency of cells should be 80-90% on day of plating. Cells are rinsed with 10 ml of PBS and re-suspended by addition of culture medium and trituration with a 25 ml pipette.
The cells are seeded at a density of approximately 1×10^6 cells/ml (100 μl/well) in black-walled, clear bottom, 96-well plates pre-treated with 10 mg/l poly-D-lysin (75 μl/well for ≧30 min). Plated cells were allowed to proliferate for 24 h before loading with dye.
Fluo-4/AM (1 mg, Molecular Probes) is dissolved in 912 μl DMSO. The Fluo-4/AM stock solution (1 mM) is diluted with culture medium to a final concentration of 2 μM (loading solution).
The culture medium is aspirated from the wells, and 50 μl of the Fluo-4/AM loading solution is added to each well. The cells are incubated at 37° C. for 30 min.
After the loading period, the loading solution is aspirated and the cells are washed twice with 100 μl modified Assay Buffer (145 mM NaCl, 5 mM KCl, 5 mM CaCl2, 1 mM MgCl2, 10 mM HEPES, pH 7.4) to remove extracellular dye. Following the second wash, 100 μl modified Assay Buffer is added to each well and the fluorescence is measured in FLIPR™ or FlexStation™ (Molecular Devices, USA), or any other suitable equipment known to the skilled in the art.
Temperature: Room temperature (20-22° C.)
First addition: 50 μl test solution at a rate of 30 μl/sec and a starting height of 100 μl.
Second addition: 50 μl MES solution (20 mM, 5 mM final concentration) at a rate of 35 μl/sec and a starting height of 150 μl.
Reading intervals: pre-incubation—10 sec×7 and 3 sec×3 antagonist phase—3 sec×17 and 10 sec×12
Addition plates (compound test plate and MES plate) are placed on the right and left positions in the FLIPR tray, respectively. Cell plates are placed in the middle position and the ASIC1a program is effectuated. FLIPR will then take the appropriate measurements in accordance with the interval settings above. Fluorescence obtained after stimulation is corrected for the mean basal fluorescence (in modified Assay Buffer).
The MES-induced peak calcium response, in the presence of test substance, is expressed relatively to the MES response alone. Test substances that block the MES-induced calcium response are re-tested in triplicates. Confirmed hits are picked for further characterization by performing full dose-response curves to determine potency of each hit compound as represented by the IC50 values (i.e., the concentration of the test substance which inhibits 50% of the MES-induced calcium response; see, for example, FIGS. 1A, 1B and 1C, and FIGS. 13A and 13B).

[2] = Plasma level after administration in the formalin experiments; assay type: in vivo; settings: plasma level 1.5 h after compound administration, i.p., rat
[3] = system: CFA-induced thermal hyperalgesia; experiment: CFA model, thermal hyperalgesia (Hargreaves plantar test); assay type: in vivo, rat; settings: CFA 48 h prior
Description: Assessment of thermal hyperalgesia: Baseline and post-treatment withdrawal latencies to a noxious thermal stimulus were measured according to Hargreaves (Hargreaves et al., 1988) using a plantar test analgesia meter (IITC, Woodland Hills, Calif., model # 336). The stimulus intensity was set at 30% of maximum output and the cut-off time was set at 30 seconds. Rats were placed on a glass plate warmed to 28° C. and allowed to habituate to the testing chambers for a minimum of 15 minutes prior to each testing session. The thermal stimulus was applied to the plantar surface of the paw, and the mean latency of three readings on each paw was used as the latency value for each time point. Thermal thresholds were defined as the latency in seconds to the first pain behavior, which includes nocifensive paw withdrawal, flinching, biting and/or licking of the stimulated paw. The mean and standard error of the mean (SEM) were determined for the injured and normal paws for each treatment group.
For comparison, results with morphine (6 mg/kg sc) and indomethacin (30 mg/kg po) are shown. […] Data are expressed as mean±SEM, (n=10). **P<0.01, vs. baseline.

IC50 [1] [nM] | Structure (SMILES) | relationship between dose and plasma level [2] | reversal of CFA-induced thermal hyperalgesia ([3]; 3 h after i.p. administration, dose-dependent) | ED50 ([3]; Rattus norvegicus, ip, measured 3 h after i.p. administration, n=10, read-out: ED50, reversal of CFA-induced thermal hyperalgesia) [mg/kg]
15 to 250 | CCN1CCc2c(-c3ccccc3)cc3c(c2C1)NC(=O)/C3=N/O [Compound H, 5-phenyl-6,7,8,9-tetrahydro-3-(hydroxyimino)-8-ethyl-1H-pyrrolo[3,2-h]isoquinoline-2(3H)-one] | – | – | –
100 to 200 | COc1ccc(F)cc1-c1cc2c(c3c1CCN(C)C3)NC(=O)/C2=N/O [Compound A, 5-(5-fluoro-2-methoxyphenyl)-6,7,8,9-tetrahydro-3-(hydroxyimino)-8-methyl-1H-pyrrolo[3,2-h]isoquinoline-2(3H)-one] | linear relationship between dose and plasma exposure | fully reversing the thermal hyperalgesia | 6.5

Reference: patent US7718641B2, “Pyrrolo [3,4-H] isoquinoline compounds and methods for modulating gated ion channels” (Aros Pharma ApS, priority 2005, dated 2010)
